{
  "source": "PubChem BioAssay AID194",
  "about": "(DTP/NCI, 2004)",
  "test_system": "BDF1 mice, B16 melanoma s.c., survival/tumor T/C",
  "experiment": "NCI In Vivo Anticancer Drug Screen. Data for tumor model B16 Melanoma (subcutaneous) in B6D2F1 (BDF1) mice",
  "description": "The antitumor activity of compounds was measured in mice bearing transplantable tumors. Survival or tumor size were measured and the results are expressed as the measurement made in the treated group (T) divided by the measurement made in the vehicle treated control group (C). The tumor model used in this assay is B16 Melanoma (subcutaneous) in B6D2F1 (BDF1) mice",
  "note": "Values joined by “and” are separate entries in the source; they are usually repeats but may differ in a detail not shown here. Identical values can stand only once. Inconclusive results are not listed.",
  "data": [
    {"smiles": "CN(Cc1cnc2nc(N)nc(N)c2n1)c1ccc(C(=O)N[C@@H](CCC(=O)O)C(=O)O)cc1", "values": [
      {"measurement": "T/C", "setting": "endpoint: median survival time, dose: 0.5 mg/kg/injection, schedule: Q01DX009 (ip), vehicle: saline with Tween-80, higher = longer survival", "value": "100 % of control"},
      {"measurement": "T/C", "setting": "endpoint: median survival time, dose: 1.0 mg/kg/injection, schedule: Q01DX009 (ip), vehicle: saline with Tween-80, higher = longer survival", "value": "100 % of control"},
      {"measurement": "T/C", "setting": "endpoint: median survival time, dose: 2.0 mg/kg/injection, schedule: Q01DX009 (ip), vehicle: saline with Tween-80, higher = longer survival", "value": "89 % of control"},
      {"measurement": "T/C", "setting": "endpoint: median tumor weight (est.), dose: 0.5 mg/kg/injection, schedule: Q01DX009 (ip), vehicle: saline with Tween-80, higher = larger tumour", "value": "173 % of control"},
      {"measurement": "T/C", "setting": "endpoint: median tumor weight (est.), dose: 1.0 mg/kg/injection, schedule: Q01DX009 (ip), vehicle: saline with Tween-80, higher = larger tumour", "value": "81 % of control"}
    ]},
    {"smiles": "NC(=O)c1[nH]nc(C2OC(CO)C(O)C2O)c1O", "note": "(centres undefined)", "values": [
      {"measurement": "T/C", "setting": "endpoint: median survival time, dose: 0.12 mg/kg/injection, schedule: Q01DX009 (ip), vehicle: saline, higher = longer survival", "value": "108 % of control"},
      {"measurement": "T/C", "setting": "endpoint: median survival time, dose: 0.25 mg/kg/injection, schedule: Q01DX009 (ip), vehicle: saline, higher = longer survival", "value": "109 % of control"},
      {"measurement": "T/C", "setting": "endpoint: median survival time, dose: 0.5 mg/kg/injection, schedule: Q01DX009 (ip), vehicle: saline, higher = longer survival", "value": "106 % of control"},
      {"measurement": "T/C", "setting": "endpoint: median survival time, dose: 0.67 mg/kg/injection, schedule: Q01DX009 (ip), vehicle: saline, higher = longer survival", "value": "102 % of control"},
      {"measurement": "T/C", "setting": "endpoint: median survival time, dose: 1.25 mg/kg/injection, schedule: Q01DX009 (ip), vehicle: saline, higher = longer survival", "value": "87 % of control"}
    ]},
    {"smiles": "C[C@H](CN1CC(=O)NC(=O)C1)N1CC(=O)NC(=O)C1", "values": [
      {"measurement": "T/C", "setting": "endpoint: median survival time, dose: 6.25 mg/kg/injection, schedule: Q04DX003 (ip), vehicle: saline, higher = longer survival", "value": "122 % of control"},
      {"measurement": "T/C", "setting": "endpoint: median survival time, dose: 8.0 mg/kg/injection, schedule: Q01DX009 (ip), vehicle: saline, higher = longer survival", "value": "109 % of control"},
      {"measurement": "T/C", "setting": "endpoint: median survival time, dose: 12.5 mg/kg/injection, schedule: Q04DX003 (ip), vehicle: saline, higher = longer survival", "value": "102 % of control"},
      {"measurement": "T/C", "setting": "endpoint: median survival time, dose: 16.0 mg/kg/injection, schedule: Q01DX009 (ip), vehicle: saline, higher = longer survival", "value": "119 % of control"},
      {"measurement": "T/C", "setting": "endpoint: median survival time, dose: 16.0 mg/kg/injection, schedule: Q01DX009 (ip), vehicle: water, higher = longer survival", "value": "96 % of control"},
      {"measurement": "T/C", "setting": "endpoint: median survival time, dose: 25.0 mg/kg/injection, schedule: Q04DX003 (ip), vehicle: saline, higher = longer survival", "value": "115 % of control"},
      {"measurement": "T/C", "setting": "endpoint: median survival time, dose: 32.0 mg/kg/injection, schedule: Q01DX009 (ip), vehicle: saline, higher = longer survival", "value": "112 % of control"},
      {"measurement": "T/C", "setting": "endpoint: median survival time, dose: 32.0 mg/kg/injection, schedule: Q01DX009 (ip), vehicle: water, higher = longer survival", "value": "109 % of control"},
      {"measurement": "T/C", "setting": "endpoint: median survival time, dose: 50.0 mg/kg/injection, schedule: Q04DX003 (ip), vehicle: saline, higher = longer survival", "value": "111 % of control"},
      {"measurement": "T/C", "setting": "endpoint: median survival time, dose: 100.0 mg/kg/injection, schedule: Q04DX003 (ip), vehicle: saline, higher = longer survival", "value": "115 % of control"},
      {"measurement": "T/C", "setting": "endpoint: median survival time, dose: 200.0 mg/kg/injection, schedule: Q04DX003 (ip), vehicle: saline, higher = longer survival", "value": "122 % of control"},
      {"measurement": "T/C", "setting": "endpoint: median survival time, dose: 800.0 mg/kg/injection, schedule: Q04DX003 (ip), vehicle: saline, higher = longer survival", "value": "115 % of control"}
    ]},
    {"smiles": "O=C(O)CCCc1ccc(N(CCCl)CCCl)cc1", "values": [
      {"measurement": "T/C", "setting": "endpoint: median survival time, dose: 1.5 mg/kg/injection, schedule: Q01DX009 (ip), vehicle: Klucel (hydroxypropylcellulose) (HPC), higher = longer survival", "value": "111 % of control"},
      {"measurement": "T/C", "setting": "endpoint: median survival time, dose: 3.0 mg/kg/injection, schedule: Q01DX009 (ip), vehicle: Klucel (hydroxypropylcellulose) (HPC), higher = longer survival", "value": "105 % of control"},
      {"measurement": "T/C", "setting": "endpoint: median survival time, dose: 4.0 mg/kg/injection, schedule: Q01DX009 (ip), vehicle: Klucel (hydroxypropylcellulose) (HPC), higher = longer survival", "value": "121 % of control"},
      {"measurement": "T/C", "setting": "endpoint: median survival time, dose: 6.0 mg/kg/injection, schedule: Q01DX009 (ip), vehicle: Klucel (hydroxypropylcellulose) (HPC), higher = longer survival", "value": "101 % of control"},
      {"measurement": "T/C", "setting": "endpoint: median survival time, dose: 8.0 mg/kg/injection, schedule: Q01DX009 (ip), vehicle: Klucel (hydroxypropylcellulose) (HPC), higher = longer survival", "value": "102 % of control"},
      {"measurement": "T/C", "setting": "endpoint: median survival time, dose: 12.0 mg/kg/injection, schedule: Q01DX009 (ip), vehicle: Klucel (hydroxypropylcellulose) (HPC), higher = longer survival", "value": "97 % of control"},
      {"measurement": "T/C", "setting": "endpoint: median tumor weight (est.), dose: 4.0 mg/kg/injection, schedule: Q01DX009 (ip), vehicle: saline with Tween-80, higher = larger tumour", "value": "61 % of control"},
      {"measurement": "T/C", "setting": "endpoint: median tumor weight (est.), dose: 8.0 mg/kg/injection, schedule: Q01DX009 (ip), vehicle: saline with Tween-80, higher = larger tumour", "value": "25 % of control"}
    ]},
    {"smiles": "CC(C)CCC[C@@H](C)[C@H]1CC[C@H]2[C@@H]3CC=C4C[C@@H](O)CC[C@]4(C)[C@H]3CC[C@]12C", "values": [
      {"measurement": "T/C", "setting": "endpoint: median survival time, dose: 12.5 mg/kg/injection, schedule: Q01DX009 (ip), vehicle: other, higher = longer survival", "value": "120 % of control"},
      {"measurement": "T/C", "setting": "endpoint: median survival time, dose: 25.0 mg/kg/injection, schedule: Q01DX009 (ip), vehicle: other, higher = longer survival", "value": "96 % of control"},
      {"measurement": "T/C", "setting": "endpoint: median survival time, dose: 50.0 mg/kg/injection, schedule: Q01DX009 (ip), vehicle: other, higher = longer survival", "value": "119 % of control"}
    ]},
    {"smiles": "S=c1nc[nH]c2nc[nH]c12", "values": [
      {"measurement": "T/C", "setting": "endpoint: median survival time, dose: 12.5 mg/kg/injection, schedule: Q01DX009 (ip), vehicle: Klucel (hydroxypropylcellulose) (HPC), higher = longer survival", "value": "103 % of control and 118 % of control"},
      {"measurement": "T/C", "setting": "endpoint: median survival time, dose: 25.0 mg/kg/injection, schedule: Q01DX009 (ip), vehicle: saline with Tween-80, higher = longer survival", "value": "100 % of control"},
      {"measurement": "T/C", "setting": "endpoint: median survival time, dose: 50.0 mg/kg/injection, schedule: Q01DX009 (ip), vehicle: saline with Tween-80, higher = longer survival", "value": "100 % of control"},
      {"measurement": "T/C", "setting": "endpoint: median survival time, dose: 100.0 mg/kg/injection, schedule: Q01DX009 (ip), vehicle: saline with Tween-80, higher = longer survival", "value": "93 % of control"},
      {"measurement": "T/C", "setting": "endpoint: median tumor weight (est.), dose: 25.0 mg/kg/injection, schedule: Q01DX009 (ip), vehicle: saline with Tween-80, higher = larger tumour", "value": "103 % of control"},
      {"measurement": "T/C", "setting": "endpoint: median tumor weight (est.), dose: 50.0 mg/kg/injection, schedule: Q01DX009 (ip), vehicle: saline with Tween-80, higher = larger tumour", "value": "91 % of control"}
    ]}
  ]
}
